PubChem BioAssay (NCI)
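Five concentrations, 48 hours, 96-well plates. TGI: total growth inhibition.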

What was measured:
Test in all cases: NCI tumour cell line growth inhibition, 48 h
786-0 renal = tested on: 786-0 renal
A498 renal = tested on: A498 renal
A549 NSCLC = tested on: A549 NSCLC
ACHN renal = tested on: ACHN renal
CAKI-1 renal = tested on: CAKI-1 renal
CCRF-CEM leukemia = tested on: CCRF-CEM leukemia
COLO 205 colon = tested on: COLO 205 colon
DMS 273 small cell lung = tested on: DMS 273 small cell lung
EKVX NSCLC = tested on: EKVX NSCLC
HCT-116 colon = tested on: HCT-116 colon
HCT-15 colon = tested on: HCT-15 colon
HL-60(TB) leukemia = tested on: HL-60(TB) leukemia
HOP-62 NSCLC = tested on: HOP-62 NSCLC
HOP-92 NSCLC = tested on: HOP-92 NSCLC
HT29 colon = tested on: HT29 colon
IGROV1 ovarian = tested on: IGROV1 ovarian
K-562 leukemia = tested on: K-562 leukemia
KM12 colon = tested on: KM12 colon
KM20L2 colon = tested on: KM20L2 colon
LOX IMVI melanoma = tested on: LOX IMVI melanoma
LXFL 529 NSCLC = tested on: LXFL 529 NSCLC
M14 melanoma = tested on: M14 melanoma
MOLT-4 leukemia = tested on: MOLT-4 leukemia
NCI-H226 lung = tested on: NCI-H226 lung
NCI-H23 lung = tested on: NCI-H23 lung
NCI-H460 lung = tested on: NCI-H460 lung
NCI-H522 lung = tested on: NCI-H522 lung
OVCAR-3 ovarian = tested on: OVCAR-3 ovarian
OVCAR-4 ovarian = tested on: OVCAR-4 ovarian
OVCAR-5 ovarian = tested on: OVCAR-5 ovarian
OVCAR-8 ovarian = tested on: OVCAR-8 ovarian
RPMI-8226 leukemia = tested on: RPMI-8226 leukemia
RXF 393 renal = tested on: RXF 393 renal
RXF-631 renal = tested on: RXF-631 renal
SF-268 CNS = tested on: SF-268 CNS
SF-295 CNS = tested on: SF-295 CNS
SF-539 CNS = tested on: SF-539 CNS
SK-MEL-2 melanoma = tested on: SK-MEL-2 melanoma
SK-MEL-28 melanoma = tested on: SK-MEL-28 melanoma
SK-MEL-5 melanoma = tested on: SK-MEL-5 melanoma
SK-OV-3 ovarian = tested on: SK-OV-3 ovarian
SN12C renal = tested on: SN12C renal
SNB-19 CNS = tested on: SNB-19 CNS
SR leukemia = tested on: SR leukemia
SW-620 colon = tested on: SW-620 colon
TK-10 renal = tested on: TK-10 renal
U251 CNS = tested on: U251 CNS
UACC-257 melanoma = tested on: UACC-257 melanoma
UACC-62 melanoma = tested on: UACC-62 melanoma
UO-31 renal = tested on: UO-31 renal
XF 498 CNS = tested on: XF 498 CNS
DLD-1 colon = tested on: DLD-1 colon
DMS 114 small cell lung = tested on: DMS 114 small cell lung
HCC-2998 colon = tested on: HCC-2998 colon
MALME-3M melanoma = tested on: MALME-3M melanoma
DU-145 prostate = tested on: DU-145 prostate
HOP-18 NSCLC = tested on: HOP-18 NSCLC
HS 578T breast = tested on: HS 578T breast
M19-MEL melanoma = tested on: M19-MEL melanoma
MCF7 breast = tested on: MCF7 breast
MDA-MB-231 breast = tested on: MDA-MB-231 breast
MDA-MB-435 = tested on: MDA-MB-435
NCI/ADR-RES ovarian = tested on: NCI/ADR-RES ovarian
PC-3 prostate = tested on: PC-3 prostate
SNB-75 CNS = tested on: SNB-75 CNS
SNB-78 CNS = tested on: SNB-78 CNS
T-47D breast = tested on: T-47D breast

For `S=C(N/N=C/c1ccccc1)NC12CC3CC(CC(C3)C1)C2`, the TGI (786-0 renal) was > 100 µM, the TGI (A498 renal) was > 100 µM and the TGI (A549 NSCLC) was > 100 µM. The TGI (ACHN renal) was > 100 µM, the TGI (CAKI-1 renal) was > 100 µM and the TGI (CCRF-CEM leukemia) was 92.4 µM. The TGI (COLO 205 colon) was 89.6 µM, the TGI (DMS 273 small cell lung) was 67.9 µM and the TGI (EKVX NSCLC) was > 100 µM. For the same compound, the TGI (HCT-116 colon) was > 100 µM, the TGI (HCT-15 colon) was > 100 µM and the TGI (HL-60(TB) leukemia) was > 100 µM. The TGI (HOP-62 NSCLC) was > 100 µM, the TGI (HOP-92 NSCLC) was 56.2 µM and the TGI (HT29 colon) was 26.5 µM. The TGI (IGROV1 ovarian) was > 100 µM, the TGI (K-562 leukemia) was > 100 µM and the TGI (KM12 colon) was > 100 µM. The TGI (KM20L2 colon) was 76.2 µM, the TGI (LOX IMVI melanoma) was 45.1 µM and the TGI (LXFL 529 NSCLC) was > 100 µM. The TGI (M14 melanoma) was > 100 µM, the TGI (MOLT-4 leukemia) was 74.2 µM and the TGI (NCI-H226 lung) was > 100 µM. For the same compound, the TGI (NCI-H23 lung) was > 100 µM, the TGI (NCI-H460 lung) was > 100 µM and the TGI (NCI-H522 lung) was > 100 µM. The TGI (OVCAR-3 ovarian) was 83.4 µM, the TGI (OVCAR-4 ovarian) was > 100 µM and the TGI (OVCAR-5 ovarian) was > 100 µM. The TGI (OVCAR-8 ovarian) was > 100 µM, the TGI (RPMI-8226 leukemia) was 95.5 µM and the TGI (RXF 393 renal) was > 100 µM. For the same compound, the TGI (RXF-631 renal) was > 100 µM, the TGI (SF-268 CNS) was > 100 µM and the TGI (SF-295 CNS) was > 100 µM. The TGI (SF-539 CNS) was > 100 µM, the TGI (SK-MEL-2 melanoma) was > 100 µM and the TGI (SK-MEL-28 melanoma) was > 100 µM. For the same compound, the TGI (SK-MEL-5 melanoma) was > 100 µM, the TGI (SK-OV-3 ovarian) was > 100 µM and the TGI (SN12C renal) was 48.8 µM. For the same compound, the TGI (SNB-19 CNS) was > 100 µM, the TGI (SR leukemia) was > 100 µM and the TGI (SW-620 colon) was > 100 µM. The TGI (TK-10 renal) was > 100 µM, the TGI (U251 CNS) was > 100 µM and the TGI (UACC-257 melanoma) was > 100 µM. The TGI (UACC-62 melanoma) was > 100 µM, the TGI (UO-31 renal) was > 100 µM and the TGI (XF 498 CNS) was > 100 µM.
In the case of `Cn1c2c(c3ccccc31)C1C(=O)N(c3ccccc3)C(=O)C1CC2` (stereo unspecified), the TGI (786-0 renal) is reported as > 303 µM, the TGI (A549 NSCLC) is reported as > 303 µM and the TGI (ACHN renal) is reported as > 303 µM. For the same compound, the TGI (CAKI-1 renal) was > 303 µM, the TGI (CCRF-CEM leukemia) was > 303 µM and the TGI (COLO 205 colon) was > 303 µM. The TGI (DLD-1 colon) was > 303 µM, the TGI (DMS 114 small cell lung) was > 303 µM and the TGI (DMS 273 small cell lung) was > 303 µM. For the same compound, the TGI (EKVX NSCLC) was > 303 µM, the TGI (HCC-2998 colon) was > 303 µM and the TGI (HCT-116 colon) was > 303 µM. For the same compound, the TGI (HCT-15 colon) was > 303 µM, the TGI (HL-60(TB) leukemia) was > 303 µM and the TGI (HOP-62 NSCLC) was > 303 µM. For the same compound, the TGI (HOP-92 NSCLC) was > 303 µM, the TGI (HT29 colon) was > 303 µM and the TGI (IGROV1 ovarian) was > 303 µM. For the same compound, the TGI (K-562 leukemia) was > 303 µM, the TGI (KM12 colon) was > 303 µM and the TGI (KM20L2 colon) was > 303 µM. For the same compound, the TGI (LOX IMVI melanoma) was > 303 µM, the TGI (LXFL 529 NSCLC) was > 303 µM and the TGI (MALME-3M melanoma) was > 303 µM. For the same compound, the TGI (MOLT-4 leukemia) was > 303 µM, the TGI (NCI-H226 lung) was > 303 µM and the TGI (NCI-H23 lung) was > 303 µM. The TGI (NCI-H460 lung) was > 303 µM, the TGI (NCI-H522 lung) was > 303 µM and the TGI (OVCAR-3 ovarian) was > 303 µM. For the same compound, the TGI (OVCAR-8 ovarian) was > 303 µM, the TGI (RPMI-8226 leukemia) was > 303 µM and the TGI (RXF 393 renal) was > 303 µM. The TGI (RXF-631 renal) was > 303 µM, the TGI (SF-268 CNS) was > 303 µM and the TGI (SF-295 CNS) was > 303 µM. The TGI (SF-539 CNS) was > 303 µM, the TGI (SK-MEL-2 melanoma) was > 303 µM and the TGI (SK-MEL-28 melanoma) was > 303 µM. The TGI (SK-MEL-5 melanoma) was > 303 µM, the TGI (SK-OV-3 ovarian) was > 303 µM and the TGI (SN12C renal) was > 303 µM. For the same compound, the TGI (SNB-19 CNS) was > 303 µM, the TGI (SR leukemia) was > 303 µM and the TGI (SW-620 colon) was > 303 µM. The TGI (TK-10 renal) was > 303 µM, the TGI (U251 CNS) was > 303 µM and the TGI (UACC-257 melanoma) was > 303 µM. The TGI (UACC-62 melanoma) was > 303 µM.
`COc1cc(/C=C/c2ccc(/C=C/c3cc(OC)c(OC)c(OC)c3)cc2)cc(OC)c1OC` was tested, and the TGI (786-0 renal) was 20.7 µM, the TGI (A498 renal) was 26.1 µM and the TGI (A549 NSCLC) was > 100 µM. For the same compound, the TGI (ACHN renal) was 44.5 µM, the TGI (CAKI-1 renal) was 72.3 µM and the TGI (CCRF-CEM leukemia) was > 100 µM. For the same compound, the TGI (COLO 205 colon) was > 100 µM, the TGI (DLD-1 colon) was > 100 µM and the TGI (DMS 114 small cell lung) was > 68.2 µM. For the same compound, the TGI (DMS 273 small cell lung) was > 48.9 µM, the TGI (DU-145 prostate) was > 100 µM and the TGI (EKVX NSCLC) was > 69.1 µM. The TGI (HCC-2998 colon) was > 61.1 µM, the TGI (HCT-116 colon) was > 100 µM and the TGI (HCT-15 colon) was > 100 µM. For the same compound, the TGI (HL-60(TB) leukemia) was > 100 µM, the TGI (HOP-18 NSCLC) was > 100 µM and the TGI (HOP-62 NSCLC) was 31.3 µM. For the same compound, the TGI (HOP-92 NSCLC) was 34.7 µM, the TGI (HS 578T breast) was 75.5 µM and the TGI (HT29 colon) was > 61.7 µM. The TGI (IGROV1 ovarian) was > 71.1 µM, the TGI (K-562 leukemia) was > 100 µM and the TGI (KM12 colon) was > 77.4 µM. The TGI (KM20L2 colon) was > 76.3 µM, the TGI (LOX IMVI melanoma) was > 85.8 µM and the TGI (LXFL 529 NSCLC) was 35.9 µM. For the same compound, the TGI (M14 melanoma) was > 100 µM, the TGI (M19-MEL melanoma) was > 100 µM and the TGI (MALME-3M melanoma) was 60.1 µM. The TGI (MCF7 breast) was > 100 µM, the TGI (MDA-MB-231 breast) was 52.7 µM and the TGI (MDA-MB-435) was > 100 µM. The TGI (MOLT-4 leukemia) was > 100 µM, the TGI (NCI-H226 lung) was 49.7 µM and the TGI (NCI-H23 lung) was 25.2 µM. For the same compound, the TGI (NCI-H460 lung) was > 82 µM, the TGI (NCI-H522 lung) was 27.2 µM and the TGI (NCI/ADR-RES ovarian) was > 100 µM. The TGI (OVCAR-3 ovarian) was 77.3 µM, the TGI (OVCAR-4 ovarian) was 18.1 µM and the TGI (OVCAR-5 ovarian) was > 100 µM. For the same compound, the TGI (OVCAR-8 ovarian) was 56.1 µM, the TGI (PC-3 prostate) was > 100 µM and the TGI (RPMI-8226 leukemia) was > 100 µM. It also gave a TGI (RXF 393 renal) of 20.4 µM, a TGI (SF-268 CNS) of 42.5 µM and a TGI (SF-295 CNS) of 19.8 µM. The TGI (SF-539 CNS) was 17.8 µM, the TGI (SK-MEL-2 melanoma) was 53.9 µM and the TGI (SK-MEL-28 melanoma) was > 100 µM. The TGI (SK-MEL-5 melanoma) was > 100 µM, the TGI (SK-OV-3 ovarian) was 22.7 µM and the TGI (SN12C renal) was > 100 µM. It also gave a TGI (SNB-19 CNS) of 32.6 µM, a TGI (SNB-75 CNS) of 19.5 µM and a TGI (SNB-78 CNS) of 85 µM. For the same compound, the TGI (SR leukemia) was > 100 µM, the TGI (SW-620 colon) was > 100 µM and the TGI (T-47D breast) was 24 µM. For the same compound, the TGI (TK-10 renal) was 39.5 µM, the TGI (U251 CNS) was 29.5 µM and the TGI (UACC-257 melanoma) was > 100 µM. For the same compound, the TGI (UACC-62 melanoma) was 25.1 µM, the TGI (UO-31 renal) was > 84.6 µM and the TGI (XF 498 CNS) was 31.4 µM.
